Test system: Jurkat T cells
Test: mRNA sequencing of activated Jurkat T cells
Format: cell-based, human

C=CC[C@@H]1/C=C(\C)C[C@H](C)C[C@H](OC)[C@H]2O[C@@](O)(C(=O)C(=O)N3CCCC[C@H]3C(=O)O[C@H](/C(C)=C/[C@@H]3CC[C@@H](O)[C@H](OC)C3)[C@H](C)[C@@H](O)CC1=O)[C@H](C)C[C@@H]2OC [FK506, Tacrolimus, reference compound]
CRIM1 FPKM (P + I): 0.305 FPKM
CRTAM FPKM (P + I): 3.325 FPKM
CSF1 FPKM (P + I): 1.706 FPKM
CSF2 FPKM (P + I): 0 FPKM
CST7 FPKM (P + I): 2.338 FPKM
CXCL8 FPKM (P + I): 0.937 FPKM
CXCR3 FPKM (P + I): 0.503 FPKM
DSTYK FPKM (P + I): 3.501 FPKM
FBXO34 FPKM (P + I): 14.612 FPKM
FMNL2 FPKM (P + I): 2.726 FPKM
FOSL2 FPKM (P + I): 2.204 FPKM
FOXO1 FPKM (P + I): 1.77 FPKM
FXYD5 FPKM (P + I): 41.346 FPKM
FYN FPKM (P + I): 16.523 FPKM
GFOD1 FPKM (P + I): 4.187 FPKM
GRK5 FPKM (P + I): 8.481 FPKM
GTDC1 FPKM (P + I): 4.629 FPKM
IL2 FPKM (P + I): 0.287 FPKM
IL3 FPKM (P + I): 0.062 FPKM
IL21R FPKM (P + I): 2.244 FPKM
IL21R-AS1 FPKM (P + I): 1.927 FPKM
IQCJ-SCHIP1 FPKM (P + I): 1.657 FPKM
IRF4 FPKM (P + I): 0.423 FPKM
IRF8 FPKM (P + I): 1.19 FPKM
ISM1 FPKM (P + I): 0.726 FPKM
JAK2 FPKM (P + I): 5.248 FPKM
KCNK1 FPKM (P + I): 10.967 FPKM
KCNK5 FPKM (P + I): 3.906 FPKM
LAMP3 FPKM (P + I): 6.412 FPKM
LAX1 FPKM (P + I): 8.052 FPKM
LIF FPKM (P + I): 0.143 FPKM
LOC729603 FPKM (P + I): 2.179 FPKM
LRRC8B FPKM (P + I): 3.555 FPKM
LTBP4 FPKM (P + I): 8.427 FPKM
MAP2K3 FPKM (P + I): 41.815 FPKM
MIR6775 FPKM (P + I): 19.643 FPKM
MIR6821 FPKM (P + I): 13.626 FPKM
MYO1D FPKM (P + I): 4.59 FPKM
NDFIP1 FPKM (P + I): 22.485 FPKM
NFATC1 FPKM (P + I): 3.793 FPKM
NPDC1 FPKM (P + I): 4.328 FPKM
NR4A2 FPKM (P + I): 0.04 FPKM
NTRK1 FPKM (P + I): 0.836 FPKM
PAM FPKM (P + I): 1.483 FPKM
PDGFA FPKM (P + I): 3.25 FPKM
PELI1 FPKM (P + I): 8.175 FPKM
PHACTR2 FPKM (P + I): 2.927 FPKM
PHEX FPKM (P + I): 0.213 FPKM
PIM3 FPKM (P + I): 42.827 FPKM
PKIA FPKM (P + I): 13.962 FPKM
PLK3 FPKM (P + I): 5.257 FPKM
PLS3 FPKM (P + I): 0.052 FPKM
POU2AF1 FPKM (P + I): 2.274 FPKM
PPIF FPKM (P + I): 50.291 FPKM
PTPN6 FPKM (P + I): 20.906 FPKM
PTPN22 FPKM (P + I): 6.37 FPKM
RDH10 FPKM (P + I): 5.856 FPKM
REL FPKM (P + I): 4.749 FPKM
RGS16 FPKM (P + I): 1.172 FPKM
SCHIP1 FPKM (P + I): 1.535 FPKM
SERPINB2 FPKM (P + I): 2.905 FPKM
SHC4 FPKM (P + I): 0.663 FPKM
SLAMF1 FPKM (P + I): 0.217 FPKM
SLC35E4 FPKM (P + I): 0.952 FPKM
SORBS1 FPKM (P + I): 0.4 FPKM
SPRY1 FPKM (P + I): 4.074 FPKM
STAT5A FPKM (P + I): 3.347 FPKM
TAGAP FPKM (P + I): 4.352 FPKM
TBC1D4 FPKM (P + I): 12.549 FPKM
TBC1D20 FPKM (P + I): 17.7 FPKM
TDRD9 FPKM (P + I): 1.245 FPKM
TIAM2 FPKM (P + I): 0.27 FPKM
TM4SF1 FPKM (P + I): 0.439 FPKM
TNFRSF4 FPKM (P + I): 2.933 FPKM
TNFSF9 FPKM (P + I): 2.568 FPKM
TNFSF14 FPKM (P + I): 1.023 FPKM
TNS3 FPKM (P + I): 0.678 FPKM
VAMP1 FPKM (P + I): 14.793 FPKM
XCL1 FPKM (P + I): 0 FPKM
XCL2 FPKM (P + I): 0 FPKM
ZNF704 FPKM (P + I): 0.014 FPKM
ZNF827 FPKM (P + I): 1.521 FPKM
ABCB10 FPKM (P+I): 10.164 FPKM
ACTG1 FPKM (P+I): 1002.221 FPKM
ADAM19 FPKM (P+I): 5.532 FPKM
ADD3 FPKM (P+I): 13.6 FPKM
ADORA2B FPKM (P+I): 8.219 FPKM
AGO2 FPKM (P+I): 13.242 FPKM
AIM1 FPKM (P+I): 37.047 FPKM
APOBEC3A_B FPKM (P+I): 10.242 FPKM
APOBEC3B FPKM (P+I): 41.16 FPKM
APOBEC3C FPKM (P+I): 16.851 FPKM
APOBEC3D FPKM (P+I): 10.187 FPKM
APOL2 FPKM (P+I): 89.267 FPKM
APOL6 FPKM (P+I): 46.937 FPKM
AQP3 FPKM (P+I): 66.037 FPKM
ARAP2 FPKM (P+I): 15.321 FPKM
ARC FPKM (P+I): 9.966 FPKM
ARHGAP23 FPKM (P+I): 2.576 FPKM
ARHGEF6 FPKM (P+I): 35.366 FPKM
ASAP1 FPKM (P+I): 7.765 FPKM
ATG14 FPKM (P+I): 7.863 FPKM
ATP2B4 FPKM (P+I): 16.449 FPKM
ATXN1 FPKM (P+I): 1.798 FPKM
BACH2 FPKM (P+I): 29.7 FPKM
BAI2 FPKM (P+I): 1.395 FPKM
BAIAP2-AS1 FPKM (P+I): 2.72 FPKM
BATF3 FPKM (P+I): 36.514 FPKM
BHLHE40 FPKM (P+I): 6.563 FPKM
BTG1 FPKM (P+I): 22.099 FPKM
C1QL1 FPKM (P+I): 1.444 FPKM
C1orf233 FPKM (P+I): 0.79 FPKM
C3 FPKM (P+I): 0.489 FPKM
C9orf9 FPKM (P+I): 7.304 FPKM
C10orf54 FPKM (P+I): 0.382 FPKM
C16orf46 FPKM (P+I): 2.655 FPKM
CASC15 FPKM (P+I): 4.027 FPKM
CBX4 FPKM (P+I): 12.478 FPKM
CBX6 FPKM (P+I): 42.006 FPKM
CCDC64 FPKM (P+I): 10.044 FPKM
CCDC71L FPKM (P+I): 13.763 FPKM
CCL1 FPKM (P+I): 0 FPKM
CCL3L1 FPKM (P+I): 0 FPKM
CCL4 FPKM (P+I): 0 FPKM
CCL4L1 FPKM (P+I): 0.087 FPKM
CCL4L2 FPKM (P+I): 0.087 FPKM
CCND2 FPKM (P+I): 0.558 FPKM
CD1A FPKM (P+I): 4.589 FPKM
CD1C FPKM (P+I): 3.288 FPKM
CD1D FPKM (P+I): 2.553 FPKM
CD27-AS1 FPKM (P+I): 5.11 FPKM
CD27 FPKM (P+I): 3.098 FPKM
CD55 FPKM (P+I): 6.015 FPKM
CD69 FPKM (P+I): 125.597 FPKM
CD83 FPKM (P+I): 35.907 FPKM
CDCA7 FPKM (P+I): 26.911 FPKM
CDT1 FPKM (P+I): 11.013 FPKM
CFD FPKM (P+I): 0.937 FPKM
CHI3L2 FPKM (P+I): 58.214 FPKM
CHRNA9 FPKM (P+I): 4.046 FPKM
CLEC2B FPKM (P+I): 60.911 FPKM
CNR2 FPKM (P+I): 0.674 FPKM
CORO2A FPKM (P+I): 1.862 FPKM
CRIM1 FPKM (P+I): 0.305 FPKM
CRTAM FPKM (P+I): 3.325 FPKM
CSRNP1 FPKM (P+I): 26.052 FPKM
CST7 FPKM (P+I): 2.338 FPKM
CTDSPL FPKM (P+I): 1.758 FPKM
CTTN FPKM (P+I): 11.037 FPKM
CXCL3 FPKM (P+I): 3.147 FPKM
CXCL9 FPKM (P+I): 0.839 FPKM
CXCL10 FPKM (P+I): 0.352 FPKM
CXCR3 FPKM (P+I): 0.503 FPKM
CYB5RL FPKM (P+I): 1.807 FPKM
DFNA5 FPKM (P+I): 12.016 FPKM
DHFR FPKM (P+I): 7.656 FPKM
DNAJB11 FPKM (P+I): 107.644 FPKM
DNAJC1 FPKM (P+I): 13.765 FPKM
DNPEP FPKM (P+I): 31.154 FPKM
DOK2 FPKM (P+I): 27.372 FPKM
DPY19L2P2 FPKM (P+I): 2.937 FPKM
DPYSL2 FPKM (P+I): 11 FPKM
DTX3L FPKM (P+I): 48.022 FPKM
DUSP2 FPKM (P+I): 123.613 FPKM
DUSP5 FPKM (P+I): 116.404 FPKM
E2F1 FPKM (P+I): 7.783 FPKM
E2F2 FPKM (P+I): 3.317 FPKM
EIF2AK3 FPKM (P+I): 9.332 FPKM
ENC1 FPKM (P+I): 9.299 FPKM
ENHO FPKM (P+I): 1.746 FPKM
ENPP1 FPKM (P+I): 124.248 FPKM
EPAS1 FPKM (P+I): 5.846 FPKM
EPHA3 FPKM (P+I): 2.019 FPKM
ERO1LB FPKM (P+I): 5.101 FPKM
ETV5 FPKM (P+I): 15.576 FPKM
EVI2A FPKM (P+I): 15.078 FPKM
FAM46C FPKM (P+I): 5.191 FPKM
FAM111B FPKM (P+I): 5.291 FPKM
FASLG FPKM (P+I): 1.518 FPKM
FBXO34 FPKM (P+I): 14.612 FPKM
FMNL2 FPKM (P+I): 2.726 FPKM
FOS FPKM (P+I): 7.329 FPKM
FOXO1 FPKM (P+I): 1.77 FPKM
FST FPKM (P+I): 2.244 FPKM
FURIN FPKM (P+I): 23.264 FPKM
FYB FPKM (P+I): 11.107 FPKM
GAMT FPKM (P+I): 10.915 FPKM
GBP1 FPKM (P+I): 70.024 FPKM
GBP2 FPKM (P+I): 27.591 FPKM
GBP3 FPKM (P+I): 69.945 FPKM
GBP4 FPKM (P+I): 4.384 FPKM
GBP5 FPKM (P+I): 197.514 FPKM
GDPD5 FPKM (P+I): 29.626 FPKM
GEM FPKM (P+I): 2.495 FPKM
GINS2 FPKM (P+I): 16.935 FPKM
GLIPR2 FPKM (P+I): 15.84 FPKM
GNAQ FPKM (P+I): 21.057 FPKM
GNG2 FPKM (P+I): 25.67 FPKM
GPR3 FPKM (P+I): 7.96 FPKM

From US20240376163A1, “PEPTIDE FOR INHIBITING CALCINEURIN AND USE THEREOF” (Seoul National University R&DB Foundation, priority 2023, published 2024)
